# System: U-CH2 chordoma cell line
# Assay: Cell viability assay (alamarBlue, 72 h), U-CH2
# Assay type: cell-based, human
# Settings: n = 4, 72 h
# Method: (§1) Chordoma cell lines were cultured as described previously[10],[12],[33],[34]. Briefly, U-CH1 and U-CH2 cell lines were cultured in 4:1 IMDM:RPMI medium supplemented with 10% fetal bovine serum (FBS) and 1% penicillin/streptomycin in gel-coated flasks. […] CH22, UM-Chor1, U-CH12, and U-CH7 cell lines were cultured in RPMI medium supplemented with 10% FBS and 1% penicillin/streptomycin. The cell lines all undergo regular mycoplasma screening.
# (§2) Cells were seeded in 384 well plates and were treated with test compound in quadruplicate 24 h after plating. Cell viability was assessed at 72 h using alamarBlue (ThermoFisher, USA). […] IC50 values were determined by four-parameter nonlinear regression analyses using GraphPad Prism™ version 8 software (San Diego, CA).
SMILES,IC50 [µM],U-CH2 IC50
C#Cc1cc(Nc2ncnc3ccc(I)cc23)ccc1F [Compound 36],> 100,–
C#Cc1cc(Nc2ncnc3ccc(I)cc23)ccc1Cl [Compound 37],5,–
C#Cc1ccc(F)c(Nc2ncnc3cc(I)ccc23)c1 [Compound 38],> 100,–
C#Cc1cccc(Nc2ccnc3cc(I)ccc23)c1F [Compound 39],15,–
C#Cc1cc(Nc2ncnc3cc(I)ccc23)ccc1F [Compound 40],> 100,no activity
C#Cc1ccc(F)c(Nc2ncnc3cc(OC)c(OC)cc23)c1 [Compound 42],20,–

# System: U-CH1 chordoma cell line
# Assay: Cell viability assay (alamarBlue, 72 h), U-CH1
# Assay type: cell-based, human
# Settings: n = 4, 72 h
# Method: as §1, §2
SMILES,IC50 [µM],U-CH1 IC50
C#Cc1cc(Nc2ncnc3ccc(I)cc23)ccc1F [Compound 36],2.7,–
C#Cc1cc(Nc2ncnc3ccc(I)cc23)ccc1Cl [Compound 37],31,–
C#Cc1ccc(F)c(Nc2ncnc3cc(I)ccc23)c1 [Compound 38],15,–
C#Cc1cccc(Nc2ccnc3cc(I)ccc23)c1F [Compound 39],2.4,–
C#Cc1cc(Nc2ncnc3cc(I)ccc23)ccc1F [Compound 40],> 100,no activity
C#Cc1ccc(F)c(Nc2ncnc3cc(OC)c(OC)cc23)c1 [Compound 42],6.7,–

# System: HL60 cells
# Assay: AsedaSciences SYSTEMETRIC Cell Health Screen (flow cytometry toxicity profiling)
# Settings: HL60, 4 h, 5 nM–100 µM, probability 0–1, n = 2
# Outline: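 Risk scores derive from a logistic-regression ML classifier comparing flow-cytometric stress phenotypes with those of 300 reference compounds of known high or low human risk. Phenotypes: light scatter plus fluorescent physiological dyes, twelve parameters, no gating. Compounds tested 5 nM–100 µM (3× steps, duplicate) on HL60 cells, 4 h, 37 °C.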
SMILES,CC: Cell Cycle score,CM: Cell morphology score,CMI: Cell membrane integrity score,GSH: Glutathione score,MMP: Mitochondrial membrane depolarization score,NMI1: Nuclear membrane integrity 1 score,NMI2: Nuclear membrane integrity 2 score,ROS: Reactive superoxide species score
C#Cc1cc(Nc2ncnc3ccc(I)cc23)ccc1F [Compound 36],0.038,0.011,0.31,0.068,0.13,0.24,0.048,0.35
C#Cc1cc(Nc2ncnc3ccc(I)cc23)ccc1Cl [Compound 37],0.080,0.26,0.54,0.18,0.24,0.41,0.33,0.91
C#Cc1ccc(F)c(Nc2ncnc3cc(I)ccc23)c1 [Compound 38],0.98,1.00,1.00,1.00,0.96,0.99,1.00,1.00
C#Cc1cccc(Nc2ccnc3cc(I)ccc23)c1F [Compound 39],0.64,0.98,0.30,0.92,0.60,0.15,0.75,0.99
C#Cc1cc(Nc2ncnc3cc(I)ccc23)ccc1F [Compound 40],0.28,0.049,0.26,0.033,0.59,0.46,0.33,0.34
C#Cc1ccc(F)c(Nc2ncnc3cc(OC)c(OC)cc23)c1 [Compound 42],0.67,0.31,0.78,0.25,0.89,0.13,0.85,0.63

# Same assay, conditions: HL60, 4 h, 5 nM–100 µM, probability (0–1) of high-risk class, n = 2
row,SMILES,CHI: Cell Health Index
1,C#Cc1cc(Nc2ncnc3ccc(I)cc23)ccc1F [Compound 36],0.27
2,C#Cc1cc(Nc2ncnc3ccc(I)cc23)ccc1Cl [Compound 37],0.33
3,C#Cc1ccc(F)c(Nc2ncnc3cc(I)ccc23)c1 [Compound 38],0.88
4,C#Cc1cccc(Nc2ccnc3cc(I)ccc23)c1F [Compound 39],0.43
5,C#Cc1cc(Nc2ncnc3cc(I)ccc23)ccc1F [Compound 40],0.38
6,C#Cc1ccc(F)c(Nc2ncnc3cc(OC)c(OC)cc23)c1 [Compound 42],0.48

# System: CH22 patient-derived chordoma cell line
# Assay: Cell viability assay (alamarBlue, 72 h), CH22
# Assay type: cell-based, human
# Settings: n = 4, 72 h
# Method: as §1, §2
row,SMILES,IC50 [µM]
1,C#Cc1cc(Nc2ncnc3ccc(I)cc23)ccc1F [Compound 36],> 100
2,C#Cc1cc(Nc2ncnc3ccc(I)cc23)ccc1Cl [Compound 37],> 100
3,C#Cc1ccc(F)c(Nc2ncnc3cc(I)ccc23)c1 [Compound 38],> 100
4,C#Cc1cccc(Nc2ccnc3cc(I)ccc23)c1F [Compound 39],40
5,C#Cc1cc(Nc2ncnc3cc(I)ccc23)ccc1F [Compound 40],50
6,C#Cc1ccc(F)c(Nc2ncnc3cc(OC)c(OC)cc23)c1 [Compound 42],4.2

# System: WS1 human fibroblast cell line
# Assay: Cell viability assay, WS1 toxicity control
# Assay type: cell-based
# Settings: n = 4, nonspecific toxicity control
# Method: as §2
row,SMILES,IC50 [µM]
1,C#Cc1cc(Nc2ncnc3ccc(I)cc23)ccc1F [Compound 36],> 100
2,C#Cc1cc(Nc2ncnc3ccc(I)cc23)ccc1Cl [Compound 37],> 100
3,C#Cc1ccc(F)c(Nc2ncnc3cc(I)ccc23)c1 [Compound 38],> 100
4,C#Cc1cccc(Nc2ccnc3cc(I)ccc23)c1F [Compound 39],40
5,C#Cc1cc(Nc2ncnc3cc(I)ccc23)ccc1F [Compound 40],> 100
6,C#Cc1ccc(F)c(Nc2ncnc3cc(OC)c(OC)cc23)c1 [Compound 42],20

# Biological target: EGFR (Homo sapiens, UniProt P00533)
# Assay: ProQinase in-cell EGFR assay (EGFR phosphorylation in A431 cells)
# Assay type: cell-based
# Design: This cell line endogenously expresses a high level of EGFR; endogenous in cells; host or cells: A431
# Settings: ProQinase in-cell EGFR assay, A431 cells, n = 1
# Description: In addition, we ran an EGFR in-cell target engagement assay, measuring in-cell EGFR phosphorylation, using the human epidermoid carcinoma cell line A431. This cell line endogenously expresses a high level of EGFR, and stimulation of these cells with human epidermal growth factor (EGF) results in receptor tyrosine autophosphorylation.
# Chain of EGFR (P00533 25-1210): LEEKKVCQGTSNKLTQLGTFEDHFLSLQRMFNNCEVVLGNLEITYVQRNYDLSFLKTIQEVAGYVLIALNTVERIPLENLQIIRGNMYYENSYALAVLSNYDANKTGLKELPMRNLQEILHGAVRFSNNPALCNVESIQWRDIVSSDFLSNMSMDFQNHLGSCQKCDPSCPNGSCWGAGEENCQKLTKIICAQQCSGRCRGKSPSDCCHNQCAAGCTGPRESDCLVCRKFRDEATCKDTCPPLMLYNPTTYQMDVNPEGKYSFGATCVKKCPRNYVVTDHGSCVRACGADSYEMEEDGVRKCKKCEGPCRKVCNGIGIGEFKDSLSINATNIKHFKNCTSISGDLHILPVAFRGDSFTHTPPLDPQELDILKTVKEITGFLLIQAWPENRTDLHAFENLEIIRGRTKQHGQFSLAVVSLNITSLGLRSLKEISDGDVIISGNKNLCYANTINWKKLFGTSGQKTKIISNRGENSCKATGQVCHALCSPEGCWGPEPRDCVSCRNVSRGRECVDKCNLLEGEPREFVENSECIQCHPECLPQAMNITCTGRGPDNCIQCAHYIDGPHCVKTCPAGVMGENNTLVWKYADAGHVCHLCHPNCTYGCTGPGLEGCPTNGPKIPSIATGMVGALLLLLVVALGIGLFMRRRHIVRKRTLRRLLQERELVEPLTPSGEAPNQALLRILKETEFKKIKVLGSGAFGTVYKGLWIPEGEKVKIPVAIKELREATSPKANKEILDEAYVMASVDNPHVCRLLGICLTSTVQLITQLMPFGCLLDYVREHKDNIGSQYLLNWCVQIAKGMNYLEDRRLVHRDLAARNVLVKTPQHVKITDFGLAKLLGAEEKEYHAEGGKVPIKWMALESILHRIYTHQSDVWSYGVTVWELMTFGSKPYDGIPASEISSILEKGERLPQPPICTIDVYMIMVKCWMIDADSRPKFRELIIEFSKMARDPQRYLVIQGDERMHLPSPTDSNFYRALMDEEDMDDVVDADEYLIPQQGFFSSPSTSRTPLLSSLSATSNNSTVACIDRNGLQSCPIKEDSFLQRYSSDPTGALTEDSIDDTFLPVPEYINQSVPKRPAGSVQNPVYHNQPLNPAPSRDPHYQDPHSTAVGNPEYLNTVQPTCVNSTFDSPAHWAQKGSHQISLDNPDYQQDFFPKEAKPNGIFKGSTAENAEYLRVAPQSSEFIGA
row,SMILES,IC50 [µM]
1,C#Cc1cc(Nc2ncnc3ccc(I)cc23)ccc1F [Compound 36],2.7
2,C#Cc1cccc(Nc2ccnc3cc(I)ccc23)c1F [Compound 39],1.7
3,C#Cc1cc(Nc2ncnc3cc(I)ccc23)ccc1F [Compound 40],3.6
4,C#Cc1ccc(F)c(Nc2ncnc3cc(OC)c(OC)cc23)c1 [Compound 42],0.29

# Further compounds by falling IC50, results first:
row,IC50 [µM],SMILES
1,5.2,C#Cc1ccc(F)c(Nc2ncnc3cc(I)ccc23)c1 [Compound 38]
2,2,C#Cc1cc(Nc2ncnc3ccc(I)cc23)ccc1Cl [Compound 37]

# System: UM-Chor1 patient-derived chordoma cell line
# Assay: Cell viability assay (alamarBlue, 72 h), UM-Chor1
# Assay type: cell-based, human
# Settings: n = 4, 72 h
# Method: as §1, §2
row,SMILES,IC50 [µM]
1,C#Cc1cc(Nc2ncnc3ccc(I)cc23)ccc1F [Compound 36],> 100
2,C#Cc1cc(Nc2ncnc3ccc(I)cc23)ccc1Cl [Compound 37],> 100
3,C#Cc1ccc(F)c(Nc2ncnc3cc(I)ccc23)c1 [Compound 38],> 100
4,C#Cc1cccc(Nc2ccnc3cc(I)ccc23)c1F [Compound 39],62
5,C#Cc1cc(Nc2ncnc3cc(I)ccc23)ccc1F [Compound 40],> 100
6,C#Cc1ccc(F)c(Nc2ncnc3cc(OC)c(OC)cc23)c1 [Compound 42],> 100

# System: U-CH7 patient-derived chordoma cell line
# Assay: Cell viability assay (alamarBlue, 72 h), U-CH7
# Assay type: cell-based, human
# Settings: n = 4, 72 h
# Method: as §1, §2
row,SMILES,IC50 [µM]
1,C#Cc1cc(Nc2ncnc3ccc(I)cc23)ccc1F [Compound 36],> 100
2,C#Cc1cc(Nc2ncnc3ccc(I)cc23)ccc1Cl [Compound 37],> 100
3,C#Cc1ccc(F)c(Nc2ncnc3cc(I)ccc23)c1 [Compound 38],> 100
4,C#Cc1cccc(Nc2ccnc3cc(I)ccc23)c1F [Compound 39],49
5,C#Cc1cc(Nc2ncnc3cc(I)ccc23)ccc1F [Compound 40],> 100
6,C#Cc1ccc(F)c(Nc2ncnc3cc(OC)c(OC)cc23)c1 [Compound 42],> 100

# System: U-CH12 patient-derived chordoma cell line
# Assay: Cell viability assay (alamarBlue, 72 h), U-CH12
# Assay type: cell-based, human
# Settings: n = 4, 72 h
# Method: as §1, §2
row,SMILES,IC50 [µM]
1,C#Cc1cc(Nc2ncnc3ccc(I)cc23)ccc1F [Compound 36],> 100
2,C#Cc1cc(Nc2ncnc3ccc(I)cc23)ccc1Cl [Compound 37],> 100
3,C#Cc1ccc(F)c(Nc2ncnc3cc(I)ccc23)c1 [Compound 38],> 100
4,C#Cc1cccc(Nc2ccnc3cc(I)ccc23)c1F [Compound 39],33
5,C#Cc1cc(Nc2ncnc3cc(I)ccc23)ccc1F [Compound 40],> 100
6,C#Cc1ccc(F)c(Nc2ncnc3cc(OC)c(OC)cc23)c1 [Compound 42],> 100
